# Results from patent US20060058388A1, “Methods for treating ocular diseases via introxide and or polyhydroxy acid containing compounds” (priority 2003, published 2006).
# Assays:
# [1] = tested on: human elastin promoter linked to a luciferase reporter gene construct in human skin fibroblasts; assay: human elastin promoter/luciferase assay (UV-induced promoter induction); assay type: cell-based
# Protocol: Thus, gluconolactone protects against UV-induced gene induction in cells containing the human elastin promoter/luciferase construct. […] The ED50 for cell cultures with tempol but not receiving any ultraviolet radiaiton was approximately 100 mM.
# Gluconolactone was prepared in PBS.
# 4-Hydroxy-tempo (tempol) was prepared in PBS.
# [2] = tested on: human skin fibroblasts containing the human elastin promoter linked to a luciferase reporter gene construct; assay: Neutral Red Cytotoxicity/Phototoxicity Assay
# Protocol: Immortalized human skin fibroblasts containing the human elastin promoter linked to a luciferase reporter gene construct were seeded in 96-well plates at a density of 7,500 cells per well (doubling time ˜30 hours). Cells were grown in 75 cm^2 tissue culture flasks in MEM (without phenol red) supplemented with 10% FBS, 25 mM HEPES, 2 mM l-glutamine, 1% nonessential amino acids, 50 μg/mL Gentamycin, and 5 μg/mL Zeocin. Cell cultures were incubated in a 37° C. incubator (containing 5% CO2) when not being manipulated or irradiated. Cell cultures were washed with Phosphate Buffered Saline (PBS) with Ca^++ and Mg^++ when media or compounds were removed and before ultraviolet radiation (UVR).
# Gluconolactone was prepared in PBS. Concentrations of 0.5, 1.0, 2.5, 5.0, 7.5, 10.0, 12.5, and 25% (w/v) were prepared and adjusted to a pH of 7.2. Gluconolactone was incubated 15 minutes prior to and in contact with cell cultures during UV-irradiation.
# 4-Hydroxy-tempo (tempol) was prepared in PBS. Concentrations of tempol of 10, 25, 50, 62.5, 100, 125, 250, and 500 mM were prepared and adjusted to a pH of 7.2. Tempol was incubated 15 minutes prior to and in contact with cell cultures during UV-irradiation.
# Cell cultures were UV-irradiated with Westinghouse 40-Watt fluorescent sunlamps (FS-40 lamps) with doses of either 2 or 5 mJ/cm^2, based on a PMA2100 radiometer (Solar light Company, Philadelphia, Pa.) equipped with a PMA2101 erythema weighted detector.
# Fifteen hours after UV-irradiation with the FS-40 lamps, cell cultures were washed with PBS and Neutral Red Medium (Neutral Red dye+supplemented MEM) was added for a 3 hours (in 37° C. incubators). After the incubation period, cells are washed with PBS and the Neutral Red Desorb solution (50% Ethanol, 49% distilled water, 1% Glacial Acetic Acid) was added. Plates are shaken for 10 minutes at 500 rpm and then the absorption was read at 540 nm using THERMOmax plate reader and SOFTmax PRO software.
SMILES,"protection against UV-induced promoter induction ([1]; human elastin promoter/luciferase fibroblasts, UV-irradiated)",phototoxicity or cytotoxicity [2],"ED50 for phototoxicity ([2]; human, pH 7.2)","protection against toxicity ([1]; human elastin promoter/luciferase assay, increasing ultraviolet doses)","protection against toxicity ([2]; neutral red assay, increasing ultraviolet doses)",ED50 for cell cultures ([2]; not receiving any ultraviolet radiation),ED50 for cell cultures ([2]; ultraviolet radiation dose 2 mJ/cm^2),ED50 for cell cultures ([2]; ultraviolet radiation dose 5 mJ/cm^2) [mM]
"O=C1O[C@H](CO)[C@@H](O)[C@H](O)[C@H]1O [Glucolactone, Gluconolactone]",approximately 50%,did not demonstrate significant phototoxicity or cytotoxicity,approximately 102 g/L,–,–,–,–,–
"CC1(C)CC(O)CC(C)(C)N1[O] [tempol, 4-Hydroxy-tempo]",–,–,–,over 50%,over 50%,approximately 100 mM,approximately 150 mM,~250
